# Data taken from patent publication US11414474B2, “Long-acting adrenomedullin derivatives” (University of Miyazaki, priority 2014, dated 2022).
# Assays:
# in vivo = conditions: male, Wistar, rat, iv
# Description: Each 11 to 14-week-old male Wistar rat was anesthetized by the inhalation of isoflurane. After tracheotomy, inhalational anesthesia was controlled at an isoflurane concentration of 1.5 to 2.5% and a flow rate of 0.6 to 0.8 L/min. The right jugular vein was isolated from the rat, and a catheter tube corresponding to 26 G was inserted thereto. Next, the left carotid artery was isolated from the rat thus treated, and a catheter tube corresponding to 23 G was inserted thereto. […] From the catheter inserted in the carotid artery, 300 μl of blood was collected over time from the start of the administration. Immediately, EDTA-2Na (300 μg) and aprotinin (21 μg) were added to the obtained blood sample, and the mixture was further centrifuged under conditions involving 3000 rpm and 10 minutes to obtain plasma. The AM concentration in the plasma of each sample was measured by chemiluminescent enzyme immunoassay. The half-lives in blood of the first and second phases were calculated from the measurement results of the AM concentration in the plasma using a two-compartment model.
# [1] = tested on: blood pressure of the rat; experiment: Blood pressure-lowering effect after single intravenous dose in anesthetized rats; type: in vivo; conditions: intravenous single dose 10 nmol/kg
# Description: From the catheter tube of the right jugular vein, a physiological saline-heparin solution (physiological saline: 100 ml; heparin: 1000 units) was infused at 2.4 ml/hr. […] The catheter inserted in the carotid artery was connected to a pressure transducer. […] In the figure, the longitudinal axis indicates a difference obtained by subtracting the average blood pressure before the administration of each drug from the average blood pressure at the time of the administration of each drug.
# In the case of these derivatives, the blood pressure-lowering effect was sustained even 90 minutes after the administration. […] The blood pressure-lowering effect of the adrenomedullin derivative shown in this test was well consistent with the prolonged half-life in blood shown in the above test.
# AM receptor = biological target: T1, AM receptor (Homo sapiens, UniProt Q16602); experiment: Intracellular cAMP concentration-increasing effect in AM receptor-expressing HEK293 cells (cAMP ELISA); type: cell-based
# T1 construct: expressed in transfected cells; host or cells: HEK293 cell line
# T1 sequence (Q16602 23-461): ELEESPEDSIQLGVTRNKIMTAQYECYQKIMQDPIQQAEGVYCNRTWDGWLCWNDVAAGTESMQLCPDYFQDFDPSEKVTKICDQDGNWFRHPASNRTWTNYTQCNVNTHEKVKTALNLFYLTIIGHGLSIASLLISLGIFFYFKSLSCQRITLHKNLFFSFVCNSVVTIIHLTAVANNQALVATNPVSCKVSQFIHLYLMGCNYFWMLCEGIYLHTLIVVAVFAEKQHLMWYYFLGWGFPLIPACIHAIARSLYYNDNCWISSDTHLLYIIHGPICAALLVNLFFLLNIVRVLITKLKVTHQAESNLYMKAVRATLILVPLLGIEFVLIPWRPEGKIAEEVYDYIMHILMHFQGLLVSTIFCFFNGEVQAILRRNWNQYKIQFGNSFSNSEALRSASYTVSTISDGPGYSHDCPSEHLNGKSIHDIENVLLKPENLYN
# T1 sequence (O60895 43-175 partner): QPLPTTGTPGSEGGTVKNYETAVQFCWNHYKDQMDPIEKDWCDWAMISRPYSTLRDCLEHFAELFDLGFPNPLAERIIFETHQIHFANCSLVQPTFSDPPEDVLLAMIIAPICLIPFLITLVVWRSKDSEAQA
# Description: Then, the intracellular cAMP concentration in the HEK293 cells of each test sample was measured using an ELISA kit for cAMP measurement (GE Healthcare Japan Corp., #RPN2251).
# [2] = tested on: DSS-induced enteritis (inflammatory bowel disease model); experiment: Therapeutic effect on DSS-induced inflammatory bowel disease model (total score, length of intestinal tract); type: in vivo, mouse; design: total score, median value / total score, mean±standard deviation: scale not given here; conditions: for total score as compared with the control group: Steel's multiple comparison test, p<0.05 or P<0.01
# Description: The body weight of the subject mouse was measured 3, 5, 7, 10 and 14 days after the start of the administration.
# The body weight of the subject mouse and the form of stool thereof were evaluated 3, 5, 7, 10 and 14 days after the start of the administration on the basis of scoring criteria given below. The obtained scores were summed to calculate the total score of each sample.
# The intestinal tract excised by anatomy was opened along its longitudinal axis, and fat tissues were removed, followed by washing with physiological saline. Next, the length of the intestinal tract was measured.
# The total score evaluated by the procedures described above is indicated by a median value [mean±standard deviation]. The total scores of the control group obtained 3, 5, 7, 10 and 14 days after the start of the administration were 0.0 [0.6±0.3], 4.0 [3.7±0.4], 6.0 [5.4±0.5], 3.5 [4.1±0.4] and 0.0 [0.0±0.0], respectively.
# [3] = second-phase half-life in blood
# [4] = 0.02 nmol/kg/hr, 3 days after the start of the administration
# [5] = 0.1 nmol/kg/hr, 3 days after the start of the administration
# [6] = 0.5 nmol/kg/hr, 3 days after the start of the administration
compound,measurement,setting,value
CCCCCCCCCCCCCCCC(=O)N[C@@H](Cc1ccc(O)cc1)C(=O)N[C@@H](CCCNC(=N)N)C(=O)N[C@@H](CCC(N)=O)C(=O)N[C@@H](CO)C(=O)N[C@@H](CCSC)C(=O)N[C@@H](CC(N)=O)C(=O)N[C@@H](CC(N)=O)C(=O)N[C@@H](Cc1ccccc1)C(=O)N[C@@H](CCC(N)=O)C(=O)NCC(=O)N[C@@H](CC(C)C)C(=O)N[C@@H](CCCNC(=N)N)C(=O)N[C@@H](CO)C(=O)N[C@@H](Cc1ccccc1)C(=O)NCC(=O)N[C@H]1CSSC[C@@H](C(=O)N[C@H](C(=O)N[C@H](C(=O)N[C@@H](CCC(N)=O)C(=O)N[C@@H](CCCCN)C(=O)N[C@@H](CC(C)C)C(=O)N[C@@H](C)C(=O)N[C@@H](Cc2c[nH]cn2)C(=O)N[C@@H](CCC(N)=O)C(=O)N[C@H](C(=O)N[C@@H](Cc2ccc(O)cc2)C(=O)N[C@@H](CCC(N)=O)C(=O)N[C@@H](Cc2ccccc2)C(=O)N[C@H](C(=O)N[C@@H](CC(=O)O)C(=O)N[C@@H](CCCCN)C(=O)N[C@@H](CC(=O)O)C(=O)N[C@@H](CCCCN)C(=O)N[C@@H](CC(=O)O)C(=O)N[C@@H](CC(N)=O)C(=O)N[C@H](C(=O)N[C@@H](C)C(=O)N2CCC[C@H]2C(=O)N[C@@H](CCCNC(=N)N)C(=O)N[C@@H](CO)C(=O)N[C@@H](CCCCN)C(=O)N[C@H](C(=O)N[C@@H](CO)C(=O)N2CCC[C@H]2C(=O)N[C@@H](CCC(N)=O)C(=O)NCC(=O)N[C@@H](Cc2ccc(O)cc2)C(N)=O)[C@@H](C)CC)C(C)C)[C@@H](C)O)[C@@H](C)CC)C(C)C)[C@@H](C)O)NC(=O)[C@H]([C@@H](C)O)NC(=O)CNC(=O)[C@H](Cc2ccccc2)NC(=O)[C@H](CCCNC(=N)N)NC1=O [Pal-h.AM(1-52)],half-life,in vivo; first-phase half-life in blood,3.51 min
same,half-life,in vivo; [3],123 min
same,effect on blood pressure,[1],lowered the blood pressure
same,maximum pressure drop value compared with h.AM(1-52),[1],lower than the value of h.AM(1-52)
same,EC50,AM receptor,3.24 nM
same,maximum response value of increase in cAMP concentration as compared with h.AM(1-52),AM receptor; AM receptor-expressing HEK293 cells,substantially equivalent
"PEG5000-h.AM(1-52): human adrenomedullin (1-52) N-terminally linked to PEG having an average molecular weight of 5000 via 1-oxo-1,6-hexanediyl","total score, mean±standard deviation",[2]; [4],0.8±0.2
same,"total score, median value",[2]; [4],1.0
same,"total score, mean±standard deviation","[2]; 0.02 nmol/kg/hr, 5 days",2.8±0.5
same,"total score, median value","[2]; 0.02 nmol/kg/hr, 5 days",2.5
same,"total score, mean±standard deviation","[2]; 0.02 nmol/kg/hr, 7 days",5.7±0.4
same,"total score, median value","[2]; 0.02 nmol/kg/hr, 7 days",5.5
same,"total score, mean±standard deviation","[2]; 0.02 nmol/kg/hr, 10 days",3.1±0.8
same,"total score, median value","[2]; 0.02 nmol/kg/hr, 10 days",2.5
same,length of the intestinal tract (mean±standard deviation),"[2]; 0.02 nmol/kg/hr, 14 days",69.4±1.5 mm
same,"total score, mean±standard deviation","[2]; 0.02 nmol/kg/hr, 14 days",0.0±0.0
same,"total score, median value","[2]; 0.02 nmol/kg/hr, 14 days",0.0
same,"total score, mean±standard deviation",[2]; [5],0.7±0.3
same,"total score, median value",[2]; [5],0.0
same,"total score, mean±standard deviation","[2]; 0.1 nmol/kg/hr, 5 days",1.9±0.5
same,"total score, median value","[2]; 0.1 nmol/kg/hr, 5 days",1.5
same,"total score, mean±standard deviation","[2]; 0.1 nmol/kg/hr, 7 days",4.1±0.4
same,"total score, median value","[2]; 0.1 nmol/kg/hr, 7 days",5.0
same,"total score, mean±standard deviation","[2]; 0.1 nmol/kg/hr, 10 days",2.0±0.5
same,"total score, median value","[2]; 0.1 nmol/kg/hr, 10 days",2.0
same,total score as compared with the control group,"[2]; 0.1 nmol/kg/hr, 10 days",significant decrease
same,length of the intestinal tract (mean±standard deviation),"[2]; 0.1 nmol/kg/hr, 14 days",71.4±0.9 mm
same,"total score, mean±standard deviation","[2]; 0.1 nmol/kg/hr, 14 days",0.0±0.0
same,"total score, median value","[2]; 0.1 nmol/kg/hr, 14 days",0.0
same,total score as compared with the control group,"[2]; 0.5 nmol/kg/hr, 5, 7 and 10 days",significant decrease
same,"total score, mean±standard deviation",[2]; [6],1.3±0.3
same,"total score, median value",[2]; [6],1.0
same,"total score, mean±standard deviation","[2]; 0.5 nmol/kg/hr, 5 days",1.1±0.3
same,"total score, median value","[2]; 0.5 nmol/kg/hr, 5 days",1.5
same,"total score, mean±standard deviation","[2]; 0.5 nmol/kg/hr, 7 days",3.0±0.3
same,"total score, median value","[2]; 0.5 nmol/kg/hr, 7 days",3.0
same,"total score, mean±standard deviation","[2]; 0.5 nmol/kg/hr, 10 days",2.1±0.4
same,"total score, median value","[2]; 0.5 nmol/kg/hr, 10 days",2.0
same,length of the intestinal tract (mean±standard deviation),"[2]; 0.5 nmol/kg/hr, 14 days",72.4±0.9 mm
same,"total score, mean±standard deviation","[2]; 0.5 nmol/kg/hr, 14 days",0.0±0.0
same,"total score, median value","[2]; 0.5 nmol/kg/hr, 14 days",0.0
same,length of the intestinal tract as compared with the control group,"[2]; all of 0.02, 0.1 and 0.5 nmol/kg/hr, Dunnett's multiple comparison test, P<0.05 or P<0.01",significantly different
same,effect on blood pressure,[1],lowered the blood pressure
same,maximum pressure drop value compared with h.AM(1-52),[1],lower than the value of h.AM(1-52)
"CC[C@H](C)[C@H](NC(=O)[C@H](CCC(N)=O)NC(=O)[C@H](Cc1c[nH]cn1)NC(=O)[C@H](C)NC(=O)[C@H](CC(C)C)NC(=O)[C@H](CCCCN)NC(=O)[C@H](CCC(N)=O)NC(=O)[C@@H](NC(=O)[C@@H](NC(=O)[C@@H]1CSSC[C@H](NC(=O)CNC(=O)[C@H](Cc2ccccc2)NC(=O)[C@H](CO)NC(=O)[C@H](CCCNC(=N)N)NC(=O)[C@H](CC(C)C)NC(=O)CNC(=O)[C@H](CCC(N)=O)NC(=O)[C@H](Cc2ccccc2)NC(=O)[C@H](CC(N)=O)NC(=O)[C@H](CC(N)=O)NC(=O)[C@H](CCSC)NC(=O)[C@H](CO)NC(=O)[C@H](CCC(N)=O)NC(=O)[C@H](CCCNC(=N)N)NC(=O)[C@@H](N)Cc2ccc(O)cc2)C(=O)N[C@@H](CCCNC(=N)N)C(=O)N[C@@H](Cc2ccccc2)C(=O)NCC(=O)N[C@@H]([C@@H](C)O)C(=O)N1)[C@@H](C)O)C(C)C)C(=O)N[C@@H](Cc1ccc(O)cc1)C(=O)N[C@@H](CCC(N)=O)C(=O)N[C@@H](Cc1ccccc1)C(=O)N[C@H](C(=O)N[C@@H](CC(=O)O)C(=O)N[C@@H](CCCCN)C(=O)N[C@@H](CC(=O)O)C(=O)N[C@@H](CCCCN)C(=O)N[C@@H](CC(=O)O)C(=O)N[C@@H](CC(N)=O)C(=O)N[C@H](C(=O)N[C@@H](C)C(=O)N1CCC[C@H]1C(=O)N[C@@H](CCCNC(=N)N)C(=O)N[C@@H](CO)C(=O)N[C@@H](CCCCN)C(=O)N[C@H](C(=O)N[C@@H](CO)C(=O)N1CCC[C@H]1C(=O)N[C@@H](CCC(N)=O)C(=O)NCC(=O)N[C@@H](Cc1ccc(O)cc1)C(N)=O)[C@@H](C)CC)C(C)C)[C@@H](C)O [h.AM(1-52), reference compound]",half-life,in vivo; first-phase half-life in blood,0.61 min
same,half-life,in vivo; [3],18.9 min
same,effect on blood pressure,[1],lowered the blood pressure
same,time after the administration at which the blood pressure before the administration was restored,[1],30 min
same,time of maximum pressure drop after the administration,[1],2 min
